In patent US20250368666A1, “INDAZOLE COMPOUNDS” (TYRA BIOSCIENCES, INC., priority 2022, published 2025) one finds Kd and IC50 data, which are given here for 3 compounds.

Broadly, the Kd is a measure of binding affinity in units of concentration. One may read the IC50 as the concentration that inhibits the measured activity by half. Low values mean greater potency in that assay, high ones weaker potency in that assay.

In one assay the target is T1, FGFR1 (Homo sapiens, UniProt P11362).
T1 construct: made in house; host or cells: E. coli (BL21-derived), T7 phage
T1 sequence (P11362 22-822): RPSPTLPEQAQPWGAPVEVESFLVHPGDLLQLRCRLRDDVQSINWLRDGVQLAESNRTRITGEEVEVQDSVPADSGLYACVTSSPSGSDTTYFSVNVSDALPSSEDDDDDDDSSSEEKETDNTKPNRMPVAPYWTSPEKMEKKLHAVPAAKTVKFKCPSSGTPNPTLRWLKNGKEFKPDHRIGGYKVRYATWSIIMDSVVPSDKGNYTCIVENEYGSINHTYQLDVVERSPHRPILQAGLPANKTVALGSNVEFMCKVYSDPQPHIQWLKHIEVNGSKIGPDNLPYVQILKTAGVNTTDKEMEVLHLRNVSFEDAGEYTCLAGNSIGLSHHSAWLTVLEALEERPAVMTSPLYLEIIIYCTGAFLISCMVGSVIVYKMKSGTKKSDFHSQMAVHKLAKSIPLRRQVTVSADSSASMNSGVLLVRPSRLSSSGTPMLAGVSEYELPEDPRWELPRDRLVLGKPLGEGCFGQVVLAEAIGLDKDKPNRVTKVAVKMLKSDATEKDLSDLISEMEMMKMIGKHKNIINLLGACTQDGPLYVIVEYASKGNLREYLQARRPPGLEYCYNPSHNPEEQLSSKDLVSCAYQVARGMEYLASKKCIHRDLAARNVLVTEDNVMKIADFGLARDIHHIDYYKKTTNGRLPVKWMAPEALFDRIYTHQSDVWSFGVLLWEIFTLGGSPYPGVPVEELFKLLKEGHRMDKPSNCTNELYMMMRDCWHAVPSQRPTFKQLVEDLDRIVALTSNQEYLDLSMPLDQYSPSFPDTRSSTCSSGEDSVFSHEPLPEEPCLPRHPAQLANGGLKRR
Briefly: Kinase binding assay (kinase-tagged T7 phage, affinity beads, qPCR), Kd. The conditions noted are these: read-out: FGFR1 (Kd nM). In a few lines: (§1)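 Competition binding of compounds against kinase-tagged T7 phage captured on immobilised biotinylated ligand beads; bead-bound kinase quantified by qPCR of eluates. 11-point 3-fold dilution, 0.9% DMSO final; Kd from Hill fit with slope fixed at −1.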
In general terms: Quantitative PCR measures a nucleic acid by following its amplification.

The next assay concerns the target T2, FGFR2 (Homo sapiens, UniProt P21802).
T2 construct: made in house; host or cells: E. coli (BL21-derived), T7 phage
The assay is described as above. Particulars: read-out: FGFR2 (Kd nM). In a few lines:
as §1

Another assay concerns the target T3, FGFR3 (Homo sapiens, UniProt P22607).
T3 construct: made in house; host or cells: E. coli (BL21-derived), T7 phage
The description is as above. Particulars: read-out: FGFR3 (Kd nM). The procedure, abridged:
as §1

A further assay concerns the target T4, FGFR3 (V555M) (Homo sapiens, UniProt P22607, V555M).
T4 construct: made in house; host or cells: E. coli (BL21-derived), T7 phage
The description is as above. The conditions noted are these: V555M mutant; read-out: FGFR3 (V555M) (Kd nM). In a few lines:
as §1

A further assay concerns the target T5, FGFR4 (Homo sapiens, UniProt P22455).
T5 construct: made in house; host or cells: E. coli (BL21-derived), T7 phage
Described as above. The conditions noted are these: read-out: FGFR4 (Kd nM). The procedure, abridged:
as §1

The subject of assay [1] is KATO-III cell line (FGFR2 amplification). Put plainly: Cancer cell line cell viability assay (Cell Titer-Glo), 72 hr. In kind it is cell-based. The conditions noted are these: Homo sapiens, KATO III. In a few lines:
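Intracellular ATP was measured by Cell Titer-Glo 2.0 luminescence after cells were incubated with compound dilutions (top 3 μM, 4-fold, 9 doses). Values were expressed relative to DMSO-treated cells and IC50 was calculated from a variable-slope dose-response curve.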

In assay [2] the test system is KG-1 cell line (FGFR 1-fusion). The description is as above. Type of assay: cell-based. The conditions noted are these: Homo sapiens, KG-1, KG-1 cell line (FGFR1-fusion). The procedure, abridged: (§2)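 Following overnight attachment, each line receives compound in triplicate across nine 4-fold dilutions starting at 3 μM, with DMSO backfill for equal solvent. Luminescence after Cell Titer-Glo 2.0 addition gives percent viability versus DMSO control, fitted by 4-parameter logistic for IC50.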

Assay [3] concerns RT112/84 cell line (FGFR3-fusion). The description is as above. In kind it is cell-based. The conditions noted are these: Homo sapiens, RT112/84, RT112/84 cell line (FGFR3-fusion). In a few lines:
as §2

In assay [4] the test system is HuH7 cell line (FGF19 amplification). Put plainly: Cancer cell line cell viability assay (Cell Titer-Glo), 120 hr. In kind it is cell-based. Particulars: Homo sapiens, Huh-7. The procedure, abridged: as §2
In general terms: ATP-based viability assays read luminescence as a measure of living cells.

Assay [5] deals with MDA-MB-453 cell line (FGFR4-Y367C). Described as above. Type of assay: cell-based. The conditions noted are these: Homo sapiens. The procedure, abridged:
as §2

T2 sequence (P21802 22-821): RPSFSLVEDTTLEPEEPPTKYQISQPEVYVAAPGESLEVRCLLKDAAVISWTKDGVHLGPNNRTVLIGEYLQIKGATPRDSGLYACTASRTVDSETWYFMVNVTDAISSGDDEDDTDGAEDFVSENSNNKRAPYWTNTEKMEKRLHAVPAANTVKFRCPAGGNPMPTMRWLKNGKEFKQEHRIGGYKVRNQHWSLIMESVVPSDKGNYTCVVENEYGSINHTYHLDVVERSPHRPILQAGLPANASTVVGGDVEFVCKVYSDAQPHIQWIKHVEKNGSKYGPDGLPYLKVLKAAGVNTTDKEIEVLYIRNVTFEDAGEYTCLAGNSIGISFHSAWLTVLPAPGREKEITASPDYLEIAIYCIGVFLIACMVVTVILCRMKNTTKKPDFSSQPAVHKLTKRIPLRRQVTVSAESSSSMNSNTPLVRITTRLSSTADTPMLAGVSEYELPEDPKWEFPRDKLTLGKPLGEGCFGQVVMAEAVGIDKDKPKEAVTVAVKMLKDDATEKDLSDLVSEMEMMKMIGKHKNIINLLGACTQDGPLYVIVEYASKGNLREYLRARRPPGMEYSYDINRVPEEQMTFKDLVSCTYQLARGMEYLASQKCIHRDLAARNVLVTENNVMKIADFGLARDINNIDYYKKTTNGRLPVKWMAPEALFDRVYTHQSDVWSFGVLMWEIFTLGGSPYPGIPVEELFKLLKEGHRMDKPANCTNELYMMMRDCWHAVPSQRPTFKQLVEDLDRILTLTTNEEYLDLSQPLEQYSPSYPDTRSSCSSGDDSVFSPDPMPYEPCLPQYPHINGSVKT
T3 sequence (P22607 23-806): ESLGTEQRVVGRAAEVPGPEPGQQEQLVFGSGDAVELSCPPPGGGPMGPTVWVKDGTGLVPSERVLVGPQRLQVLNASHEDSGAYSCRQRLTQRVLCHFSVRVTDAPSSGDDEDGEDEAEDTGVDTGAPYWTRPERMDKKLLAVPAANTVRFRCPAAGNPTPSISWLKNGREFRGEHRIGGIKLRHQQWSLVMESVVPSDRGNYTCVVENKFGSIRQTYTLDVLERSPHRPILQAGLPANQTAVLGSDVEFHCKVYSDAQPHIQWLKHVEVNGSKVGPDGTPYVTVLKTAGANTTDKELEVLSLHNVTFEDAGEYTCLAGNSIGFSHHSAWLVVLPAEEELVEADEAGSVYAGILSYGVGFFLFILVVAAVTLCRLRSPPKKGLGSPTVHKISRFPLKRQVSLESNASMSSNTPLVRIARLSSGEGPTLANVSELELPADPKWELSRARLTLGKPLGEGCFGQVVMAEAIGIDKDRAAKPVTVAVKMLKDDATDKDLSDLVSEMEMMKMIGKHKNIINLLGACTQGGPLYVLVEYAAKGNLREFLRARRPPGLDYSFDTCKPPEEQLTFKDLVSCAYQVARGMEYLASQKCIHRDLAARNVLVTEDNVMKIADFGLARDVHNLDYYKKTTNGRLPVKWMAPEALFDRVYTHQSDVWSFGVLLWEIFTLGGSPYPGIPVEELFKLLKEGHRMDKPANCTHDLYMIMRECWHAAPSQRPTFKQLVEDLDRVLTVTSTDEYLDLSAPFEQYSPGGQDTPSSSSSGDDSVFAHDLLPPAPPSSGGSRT
T4 sequence (P22607 23-806 V555M): as the sequence (P22607 23-806) above, with V533M counted along it
T5 sequence (P22455 22-802): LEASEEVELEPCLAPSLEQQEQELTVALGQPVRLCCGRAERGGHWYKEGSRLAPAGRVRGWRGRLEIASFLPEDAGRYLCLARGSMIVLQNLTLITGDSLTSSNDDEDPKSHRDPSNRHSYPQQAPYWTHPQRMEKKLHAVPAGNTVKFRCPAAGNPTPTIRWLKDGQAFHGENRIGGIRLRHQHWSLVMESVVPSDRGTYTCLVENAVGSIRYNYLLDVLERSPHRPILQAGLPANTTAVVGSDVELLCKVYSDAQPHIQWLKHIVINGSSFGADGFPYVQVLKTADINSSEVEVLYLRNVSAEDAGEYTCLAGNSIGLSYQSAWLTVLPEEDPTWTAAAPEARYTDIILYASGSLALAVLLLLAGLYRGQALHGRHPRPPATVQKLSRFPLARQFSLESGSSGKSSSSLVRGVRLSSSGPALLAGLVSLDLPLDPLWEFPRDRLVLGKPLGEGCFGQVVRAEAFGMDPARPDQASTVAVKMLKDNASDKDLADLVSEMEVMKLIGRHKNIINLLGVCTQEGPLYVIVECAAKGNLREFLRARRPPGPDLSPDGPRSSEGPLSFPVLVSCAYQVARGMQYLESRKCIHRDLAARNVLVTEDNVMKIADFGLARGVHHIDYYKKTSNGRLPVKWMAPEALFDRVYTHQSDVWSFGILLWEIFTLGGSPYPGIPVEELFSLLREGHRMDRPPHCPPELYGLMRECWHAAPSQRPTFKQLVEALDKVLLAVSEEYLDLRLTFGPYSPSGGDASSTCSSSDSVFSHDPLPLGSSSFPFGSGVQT

As for `C[C@@H](Oc1ccc2[nH]nc(-c3cnc(N4CC(C)(CS(C)(=O)=O)C4)c(F)c3)c2c1)c1c(Cl)cncc1Cl` [Example 199, (R)-5-(1-(3,5-dichloropyridin-4-yl)ethoxy)-3-(5-fluoro-6-(3-methyl-3-((methyl-sulfonyl)meth-yl)azetidin-1-yl)pyridin-3-yl)-1H-indazole], the Kd on FGFR1, at FGFR2, on FGFR3, at FGFR3 (V555M) and at FGFR4 was 1 to 50 nM each time. Moreover, the IC50 is 50 to 200 nM in assay [1]; 50 to 200 nM in assay [2]; 0.1 to 50 nM in [3]; 0.1 to 50 nM in [4]; 0.1 to 50 nM in assay [5].
Turning to `CC[C@@H](C)NC1(C)CN(c2ncc(-c3n[nH]c4ccc(O[C@H](C)c5c(Cl)cncc5Cl)cc34)cc2F)C1` [Example 140, 1-[5-[5-[(1R)-1-(3,5-dichloro-4-pyridyl)ethoxy]-1H-indazol-3-yl]-3-fluoro-2-pyridyl]-3-methyl-N-[(1R)-1-methylpropyl]azetidin-3-amine], the Kd on FGFR1, at FGFR2, at FGFR3, on FGFR3 (V555M) and at FGFR4 was 1 to 50 nM throughout. Further, the IC50 lay in the range of 50 to 200 nM in [1]; 50 to 200 nM in [2]; 0.1 to 50 nM in [3]; 0.1 to 50 nM in assay [4]; 50 to 200 nM in [5].
Turning to `CNC1(C)CN(c2ncc(-c3n[nH]c4cc(OC)c(O[C@H](C)c5c(Cl)cncc5Cl)cc34)cc2C#N)C1` [Example 9, 5-[5-[(1R)-1-(3,5-dichloro-4-pyridyl)ethoxy]-6-methoxy-1H-indazol-3-yl]-2-[3-methyl-3-(methylamino)azetidin-1-yl]pyridine-3-carbonitrile], the Kd at FGFR1, at FGFR2, on FGFR3, on FGFR3 (V555M) and at FGFR4 was 1 to 50 nM throughout. Further, the IC50 fell in the range of 50 to 200 nM in assay [1]; 0.1 to 50 nM in assay [2]; 0.1 to 50 nM in assay [3]; 0.1 to 50 nM in assay [4]; 0.1 to 50 nM in assay [5].
